The values that follow come from patent publication US11306071B2, “Heterocyclic compounds as adenosine antagonists” (Nuvation Bio Inc., priority 2019, dated 2022).

Structures are written as SMILES.

Assay [1] deals with adenosine A2a (human) membrane (Homo sapiens (Human), UniProt P29274). The experiment in a line: A2A adenosine receptor radioligand binding assay ([3H] CGS-21680). The settings on record: radioligand [3H] CGS-21680 6 nM. On the procedure:
A second A2A adenosine receptor radioligand binding assay protocol was used. The protocol used adenosine A2a (human) membrane (PerkinElmer RBHA2AM400UA) at a concentration of 5 μg/well/100 μl and the radioligand [3H] CGS-21680 (Cat No. PerkinElmer-NET1021250UC) at a final concentration of 6 nM. Testing compounds were diluted with DMSO to make 8-point 4-fold serial dilution, starting at 0.2 mM. CGS-15943 was the reference compound. 1 μl of compounds/high control/low control was transferred to the assay plate according to a plate map, followed by 100 μl of membrane stocks and 100 μl of radioligand, in assay buffer (50 mM Tris-HCl, 10 mM MgCl2, 1 mM EDTA, pH 7.4). The plate was sealed and incubated at RT for 2 hours. Unifilter-96 GF/C filter plates (Perkin Elmer Cat #6005174) were soaked with 50 μl of 0.3% PEI per well for at least 0.5 hour at room temperature. When the binding assays were completed, the reaction mixtures were filtered through GF/C plates using Perkin Elmer Filtermate Harvester, and each plate washed 4 times with cold wash buffer (50 mM Tris-HCl, 154 mM NaCl, pH 7.4). The filter plates were dried for 1 hour at 50 degrees. After drying, the bottom of the filter plate wells was sealed, 50 μl of Perkin Elmer Microscint 20 cocktail was added, and the top of the filter plate was sealed. ^3H trapped on the filter was counted using Perkin Elmer MicroBeta2 Reader. The data were analyzed with GraphPad Prism 5 to obtain binding IC50 values. The “Inhibition [% Control]” was calculated using the equation: % Inh=(1-Background subtracted Assay value/Background subtracted HC value)*100, where HC is high control.

The target of assay [2] is HEK-293 cells expressing human recombinant adenosine A2A receptor (Homo sapiens (Human), UniProt P29274). Put plainly: cAMP assay (Assay 2), A2A receptor. The class given is cell-based. The method, then: (§1) The functional activity of compounds was tested using Assay 2, below, to detect the presence of cAMP. Assay 1 is an alternative assay for this purpose. Activation of G-protein coupled receptors (such as A2A) results in activation of adenylyl cyclase which converts ATP into cAMP which is used as a downstream signaling molecule. Therefore, molecules which act as GPCR (or specifically A2A receptor) antagonists cause a decrease in intracellular cAMP concentration.
Sequence of HEK-293 cells expressing human recombinant adenosine A2A receptor (P29274 whole entry): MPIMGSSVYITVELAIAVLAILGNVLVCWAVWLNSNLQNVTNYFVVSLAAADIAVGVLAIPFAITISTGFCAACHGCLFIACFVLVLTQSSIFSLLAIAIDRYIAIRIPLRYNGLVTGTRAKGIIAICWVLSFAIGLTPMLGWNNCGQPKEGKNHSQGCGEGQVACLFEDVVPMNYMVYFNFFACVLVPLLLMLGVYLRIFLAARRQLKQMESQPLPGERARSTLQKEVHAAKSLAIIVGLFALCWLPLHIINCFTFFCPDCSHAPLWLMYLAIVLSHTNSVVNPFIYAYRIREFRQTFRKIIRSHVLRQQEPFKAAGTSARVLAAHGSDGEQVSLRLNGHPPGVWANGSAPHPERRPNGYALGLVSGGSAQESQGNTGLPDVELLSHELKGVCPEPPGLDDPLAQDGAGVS
(§2) Assay 2 (Table B2): This assay used HEK-293 cells expressing human recombinant adenosine A2A receptor (or, alternatively, A1 receptor) that were grown prior to the test in media without antibiotic. 100 nL of test articles at 100x of final concentration were transferred to assay plate by Echo. Cells were washed twice with 5 mL of PBS and 10 μL of cells were mixed with 5 mL PBS. After aspirating the PBS and adding 1.5 mL versine, cells were incubated at 37° C. for 2-5 min. After centrifugation, 4 mL of medium was added and adjusted cell density to 5,000 cells/well with Stimulation Buffer. 10 μL of cells were aliquoted to the assay plate, centrifuged at 1000 rpm for 1 minute, and incubated for 60 minutes at room temperature. 5 μL 4× Eu-cAMP tracer solution and 5 μL 4× Ulight™-anti-cAMP solution were added to assay plate, followed by centrifugation and 60-minute incubation at room temperature. Plates were read on EnVision.

Assay [3] concerns the target adenosine A1 (human) membrane (Homo sapiens (Human), UniProt P30542). Put plainly: A1 adenosine receptor radioligand binding assay ([3H] DPCPX). To be noted: 200 nM compound; radioligand [3H] DPCPX 1 nM. On the procedure: A second A1 adenosine receptor radioligand binding assay protocol was used. The protocol used adenosine A1 (human) membrane (PerkinElmer ES-010-M400UA) at a concentration of 2.5 μg/well/100 μl and the radioligand [3H] DPCPX (Cat No. PerkinElmer-NET974250UC) at a final concentration of 1 nM. Testing compounds were tested at a final concentration of 200 nM. CGS-15943, the reference compound, was tested in an 8-point 4-fold serial dilution, starting at a top concentration of 1 μM. 1 μl of compounds/high control/low control was transferred to the assay plate according to a plate map, followed by 100 μl of membrane stocks and 100 μl of radioligand, in assay buffer (25 mM HEPES, 5 mM MgCl2, 1 mM CaCl2, 100 mM NaCl, pH 7.4). The plate was sealed and incubated at RT for 1 hour. Unifilter-96 GF/C filter plates (Perkin Elmer Cat #6005174) were soaked with 50 μl of 0.3% PEI per well for at least 0.5 hour at room temperature. When the binding assays were completed, the reaction mixtures were filtered through GF/C plates using Perkin Elmer Filtermate Harvester, and each plate washed 4 times with cold wash buffer (25 mM HEPES, 5 mM MgCl2, 1 mM CaCl2, 100 mM NaCl, pH 7.4). The filter plates were dried for 1 hour at 50 degrees. After drying, the bottom of the filter plate wells was sealed, 50 μl of Perkin Elmer Microscint 20 cocktail was added, and the top of the filter plate was sealed. ^3H trapped on the filter was counted using Perkin Elmer MicroBeta2 Reader. The data were analyzed with GraphPad Prism 5 to obtain binding IC50 values for the reference compound. The “Inhibition [% Control]” was calculated using the equation: % Inh=(1-Background subtracted Assay value/Background subtracted HC value)*100, where HC is high control.

Assay [4] concerns the target HEK-293 cells expressing human recombinant adenosine A1 receptor (Homo sapiens (Human), UniProt P30542). Put plainly: cAMP assay (Assay 2), A1 receptor. The class given is cell-based. On the procedure: as §1, §2
A general note: Changes in cAMP serve as a functional read-out for many G protein-coupled receptors.

Sequence of adenosine A1 (human) membrane (P30542 whole entry): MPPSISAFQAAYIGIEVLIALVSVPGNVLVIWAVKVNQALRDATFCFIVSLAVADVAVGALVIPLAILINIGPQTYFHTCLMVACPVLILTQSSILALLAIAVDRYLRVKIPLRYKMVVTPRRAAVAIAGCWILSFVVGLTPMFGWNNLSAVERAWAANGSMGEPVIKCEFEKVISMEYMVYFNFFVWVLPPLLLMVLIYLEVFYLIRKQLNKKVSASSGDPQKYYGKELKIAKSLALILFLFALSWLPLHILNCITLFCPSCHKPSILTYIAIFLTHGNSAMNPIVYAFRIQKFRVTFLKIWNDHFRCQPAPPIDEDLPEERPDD
Sequence of HEK-293 cells expressing human recombinant adenosine A1 receptor (P30542 whole entry): as above
Sequence of adenosine A2a (human) membrane (P29274 whole entry): as the sequence (P29274 whole entry) above

As usually defined, the IC50 is the concentration at which inhibition is half-maximal. As a reminder, the inhibition is the relative decrease from the control value, in per cent. For `CC(NC(=O)c1nc(-c2ccc3ncccc3c2)c(-c2ccccc2)nc1N)c1ccccn1` (centres unmarked) [compound 73, 3-amino-5-phenyl-N-(1-(pyridin-2-yl)ethyl)-6-(quinolin-6-yl)pyrazine-2-carboxamide], the IC50 in assay [1] was 3.1 nM; in assay [2], 53 nM; in assay [4] it was 403 nM. Further, the inhibition at 0.2 µM in assay [3] was 61%.
For `C[C@H](NC(=O)c1nc(-c2ccc3ncccc3c2)c(-c2ccccc2)nc1N)c1ccccn1` [compound 75, (S)-3-amino-5-phenyl-N-(1-(pyridin-2-yl)ethyl)-6-(quinolin-6-yl)pyrazine-2-carboxamide], in that order: 2.5 nM, 25 nM, 219 nM and 63%.
On the same counts, the results for `C[C@@H](NC(=O)c1nc(-c2ccc3ncccc3c2)c(-c2ccccc2)nc1N)c1ccccn1` [compound 76, (R)-3-amino-5-phenyl-N-(1-(pyridin-2-yl)ethyl)-6-(quinolin-6-yl)pyrazine-2-carboxamide] are 3.4 nM, 24 nM, 804 nM and 45%.
On the same counts, the results for `N#Cc1cccc(CNC(=O)c2nc(-c3ccc4ncccc4c3)c(-c3ccccc3)nc2N)n1` [compound 98, 3-amino-N-((6-cyanopyridin-2-yl)methyl)-5-phenyl-6-(quinolin-6-yl)pyrazine-2-carboxamide] are 0.8 nM, 18 nM, 11 nM and 92%.
Take `CC(C)(NC(=O)c1nc(-c2ccc3ncccc3c2)c(-c2ccccc2)nc1N)c1ccccn1` [compound 108, 3-amino-5-phenyl-N-(2-(pyridin-2-yl)propan-2-yl)-6-(quinolin-6-yl)pyrazine-2-carboxamide]: the IC50 in assay [1] amounted to 1.3 nM; in assay [2], 55 nM; in assay [4], 326 nM. The same molecule registered an inhibition at 0.2 µM in assay [3] of 47%.
